These results are taken from patent publication US20050032873A1, “3-Amino chroman and 2-amino tetralin derivatives” (Wyeth, priority 2003, published 2005).

Read-outs that look alike come from different tables or passages of the source.

For experiment [1], the target named is T1, cloned human 5-HT1A receptors (Homo sapiens, UniProt P08908).
T1 construct: expressed in transfected cells
T1 sequence (P08908 1-422): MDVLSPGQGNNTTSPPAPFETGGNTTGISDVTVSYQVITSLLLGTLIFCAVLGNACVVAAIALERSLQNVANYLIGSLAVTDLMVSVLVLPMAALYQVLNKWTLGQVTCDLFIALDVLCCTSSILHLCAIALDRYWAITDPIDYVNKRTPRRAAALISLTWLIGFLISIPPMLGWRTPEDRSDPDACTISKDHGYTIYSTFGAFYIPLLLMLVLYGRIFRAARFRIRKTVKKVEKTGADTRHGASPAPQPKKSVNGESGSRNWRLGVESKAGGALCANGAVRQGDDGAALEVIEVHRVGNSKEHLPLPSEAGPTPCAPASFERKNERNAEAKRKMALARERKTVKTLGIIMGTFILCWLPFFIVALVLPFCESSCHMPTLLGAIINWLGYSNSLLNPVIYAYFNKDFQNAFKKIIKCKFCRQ
Briefly: 35S-GTPγS binding assay, 5-HT1A function. Type of experiment: biochemical. Particulars: for IC50: antagonist potency, reversal of 8-OH-DPAT, read-out: 5-HT1A Function GTPγS IC50; for EC50: agonist potency. (GTPγS resists hydrolysis and so accumulates on activated G proteins.)

The target of experiment [2] is T2, serotonin transporter (Rattus norvegicus, UniProt P31652).
T2 construct: displace ^3H-paroxetine from male rat cortical membranes; from tissue; host or cells: male rat cortical membranes
Briefly: 5-HT transporter affinity: displacement of 3H-paroxetine from male rat cortical membranes. In kind it is binding. Particulars: displacement of 3H-paroxetine, male rat cortical membranes. (In general: Displacement assays read how much labelled ligand stays bound in the presence of the test substance.)

The target of experiment [3] is T3, 5-HT1A receptor (Homo sapiens, UniProt P08908).
T3 sequence (P08908 1-422): T1 sequence (P08908 1-422)
Description: cAMP accumulation assay, 5-HT1A function. Type of experiment: cell-based. Particulars: for IC50: cells marked IC50 (antagonist), read-out: 5-HT1A Function cAMP IC50; for Emax / 5-HT1A Function cAMP (Emax): in brackets after EC50 or IC50; for Emax: read-out: 5-HT1A Function cAMP (Emax); for EC50: cells marked EC50 (agonist). In general terms: Changes in cAMP serve as a functional read-out for many G protein-coupled receptors.

In experiment [4] the target is T3, 5-HT1A receptor. Briefly: 5-HT1A receptor affinity: displacement of [3H] 8-OH-DPAT. Set-up: expressed in transfected cells. Type of experiment: binding. Particulars: displacement of [3H] 8-OH-DPAT, CHO cells stably transfected with human 5-HT1A receptors.
[5] abbreviates: maximum inhibitory effect, in brackets after IC50, read-out: 5-HT1A Function GTPγS (Imax).
The mark [6] stands for this setting: read-out: 5-HT Transporter Affinity Ki.
[7] abbreviates: read-out: 5-HT1A Receptor Affinity Ki.
Setting [8] is: maximum stimulatory effect, in brackets after EC50, read-out: 5-HT1A Function GTPγS (Emax).
Where [9] appears, read: maximum inhibitory effect, in brackets after IC50.

T2 sequence (P31652 whole entry): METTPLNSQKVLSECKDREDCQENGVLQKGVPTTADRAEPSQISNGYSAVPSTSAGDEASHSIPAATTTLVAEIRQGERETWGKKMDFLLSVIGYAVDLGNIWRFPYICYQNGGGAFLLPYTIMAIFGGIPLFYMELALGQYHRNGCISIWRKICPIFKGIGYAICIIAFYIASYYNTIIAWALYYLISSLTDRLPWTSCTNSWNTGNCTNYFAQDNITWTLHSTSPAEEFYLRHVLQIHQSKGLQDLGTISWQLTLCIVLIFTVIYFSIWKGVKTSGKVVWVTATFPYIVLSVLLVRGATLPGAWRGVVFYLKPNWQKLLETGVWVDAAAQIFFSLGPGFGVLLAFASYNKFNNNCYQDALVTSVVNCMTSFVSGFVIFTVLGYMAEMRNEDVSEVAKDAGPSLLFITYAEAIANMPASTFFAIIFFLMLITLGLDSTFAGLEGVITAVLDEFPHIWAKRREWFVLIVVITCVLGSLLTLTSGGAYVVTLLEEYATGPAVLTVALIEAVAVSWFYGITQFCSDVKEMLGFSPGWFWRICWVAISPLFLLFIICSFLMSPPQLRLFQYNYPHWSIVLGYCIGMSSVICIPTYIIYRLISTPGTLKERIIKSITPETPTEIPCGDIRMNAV

`NC(=O)c1ccc(F)c2c1CC(N(CCCCc1c[nH]c3ccc(F)cc13)C1CCC1)CO2` (stereo not drawn) [Compound 83, 3-{cyclobutyl[4-(5-fluoro-1H-indol-3-yl)butyl]amino}-8-fluorochromane-5-carboxamide]: the IC50 is 351 nM in experiment [1] and 23.6 nM in experiment [3]. Also, the figures for the Emax in experiment [1] (setting [5]) and in experiment [3] were 100% and 0%, respectively. Also, the Ki in experiment [2] (setting [6]) amounted to 14.6 nM; in experiment [4] (setting [7]), 4.8 nM.

In the case of `COc1cccc2c1CC(N(CCCc1c[nH]c3ccc(F)cc13)CC1CCC1)CO2` (stereo not drawn) [Compound 42, N-(cyclobutylmethyl)-N-[3-(5-fluoro-1H-indol-3-yl)propyl]-N-(5-methoxy-3,4-dihydro-2H-chromen-3-yl)amine], the EC50 in experiment [1] was 763 nM; in experiment [3], 154 nM. Also, the Emax turned out to be 84% in experiment [1] (setting [8]) and 72.5% in experiment [3]. Also, the Ki in experiment [2] (setting [6]) was 54 nM; in experiment [4] (setting [7]), 50.4 nM.

Regarding `CCN(CCc1c[nH]c2ccc(F)cc12)C1CCc2cccc(OC)c2C1` (stereo not drawn) [Compound 49, N-ethyl-N-[2-(5-fluoro-1H-indol-3-yl)ethyl]-N-(8-methoxy-1,2,3,4-tetrahydronaphthalen-2-yl)amine], the concentration giving a half-maximal response (EC50) was 15 nM in experiment [1] and 35.5 nM in experiment [3]. Besides, the figures for the Emax in experiment [1] (setting [8]) and in experiment [3] were 88% and 93%, respectively. In addition, the figures for the Ki in experiment [2] (5-HT Transporter Affinity Ki (nM)) and in experiment [4] (5-HT1A Receptor Affinity Ki (nM)) were 6.5 nM and 7.62 nM, respectively.

Regarding `NC(=O)c1ccc(F)c2c1CC(N(CCCc1c[nH]c3c(Cl)cccc13)C1CCC1)CO2` (stereo not drawn) [Compound 111, 3-[[3-(7-chloro-1H-indol-3-yl)propyl](cyclobutyl)amino]-8-fluorochromane-5-carboxamide], the IC50 in experiment [1] was determined as 1600 nM; in experiment [3], 1060 nM. Moreover, the Emax in experiment [1] (setting [5]) stood at 100%; in experiment [3], 0%. Further, the inhibitory constant (Ki) in experiment [2] (setting [6]) came to 66 nM; in experiment [4] (setting [7]), 26 nM.

`CCN(CCCCn1ccc2cccc(F)c21)C1COc2c(F)ccc(C(N)=O)c2C1` (stereo not drawn) [Compound 189, 3-{Ethyl[4-(7-fluoro-1H-indol-1-yl)butyl]amino}-8-fluorochromane-5-carboxamide]: in experiment [1], the half-inhibitory concentration (IC50) came out at 233 nM. For the same compound, the Emax came out at 100% in experiment [1] (setting [5]) and 77.5% in experiment [3]. The Ki in experiment [2] (setting [6]) is 27.1 nM; in experiment [4] (setting [7]), 37.4 nM. Also, in experiment [3], a half-maximal response (EC50) required 286 nM.

With `CCCCN(CCCc1c[nH]c2ccc(F)cc12)C1COc2c(F)ccc(C(N)=O)c2C1` (stereo not drawn) [Compound 72, 3-{butyl[3-(5-fluoro-1H-indol-3-yl)propyl]amino}-8-fluorochromane-5-carboxamide], the IC50 in experiment [1] was found to be 3250 nM. The Emax in experiment [1] (setting [5]) is 43%; in experiment [3], 0%. The results for the Ki in experiment [2] (setting [6]) and in experiment [4] (setting [7]) were 52.5 nM and 38.8 nM, respectively.

As for `CCCN(C(C)CCCc1c[nH]c2ccc(F)cc12)C1COc2c(F)ccc(C(N)=O)c2C1` (single isomer, unassigned; (+)) [Compound 14a, (+)-8-fluoro-3-[[4-(5-fluoro-1H-indol-3-yl)-1-methylbutyl](propyl)amino]chromane-5-carboxamide], the IC50 in experiment [1] was determined as 2210 nM; in experiment [3], 147 nM. In experiment [1] (setting [9]), this compound showed a 5-HT1A Function GTPγS (Imax) of 59%. In addition, the Ki in experiment [2] (setting [6]) was found to be 13.6 nM; in experiment [4] (setting [7]), 41.7 nM. In addition, the Emax in experiment [3] was 0%.

The compound `COC(=O)c1ccc(F)c2c1CC(N(CCCc1c[nH]c3ccc(F)cc13)C1CCC1)CO2` (stereo not drawn) [Compound 55, Methyl 3-{cyclobutyl[3-(5-fluoro-1H-indol-3-yl)propyl]amino}-8-fluorochromane-5-carboxylate] showed a 5-HT1A Function GTPγS (Imax) in experiment [1] (setting [9]) of 62%. The Ki in experiment [2] (setting [6]) is 161 nM; in experiment [4] (setting [7]) it was 73.8 nM. In experiment [3], this compound yielded a 5-HT1A Function cAMP (Emax) of 0%.

For `COc1cccc2c1CC(N(CCCc1c[nH]c3ccc(C#N)cc13)CC1CC1)CO2` (stereo not drawn) [Compound 45, 3-{3-[(cyclopropylmethyl)(5-methoxy-3,4-dihydro-2H-chromen-3-yl)amino]propyl}-1H-indole-5-carbonitrile], the values for the EC50 in experiment [1] and in experiment [3] were 56 nM and 77.3 nM, respectively. For the same compound, the Emax amounted to 72% in experiment [1] (setting [8]) and 89.5% in experiment [3]. The Ki is 5.25 nM in experiment [2] (setting [6]) and 2.16 nM in experiment [4] (setting [7]).

With “[3-(5-fluoro-1H-indol-3-yl)-propyl]-((3R)-5-methoxychroman-3-yl)propylamine [Compound 24]”, the values for the EC50 in experiment [1] and in experiment [3] were 48.3 nM and 7.02 nM, respectively. This compound yielded a 5-HT1A Function GTPγS (Emax) in experiment [1] (maximum stimulatory effect, in brackets after EC50) of 91.7%. The Ki in experiment [2] (setting [6]) came out at 9.75 nM; in experiment [4] (setting [7]) it was 8.87 nM. Also, the 5-HT1A Function cAMP (Emax) in experiment [3] is 88.5%.

Take `CCN(C(C)CCc1c[nH]c2ccc(F)cc12)C1COc2c(F)ccc(C(N)=O)c2C1` (single isomer, unassigned; (+)) [Compound 16b, (+)-3-{ethyl[3-(5-fluoro-1H-indol-3-yl)-1-methylpropyl]amino}-8-fluorochromane-5-carboxamide]: the EC50 in experiment [1] was determined as 807 nM; in experiment [3], 164 nM. Also, the Emax in experiment [1] (setting [8]) was 20%. Further, the Ki in experiment [2] (setting [6]) was 0.95 nM; in experiment [4] (setting [7]) it was 128 nM. This compound yielded a 5-HT1A Function cAMP (Emax) in experiment [3] of 64.5%.

In the case of `CCCN(CCCc1c[nH]c2c(F)cc(F)cc12)C1COc2c(C(N)=O)ccc(F)c2C1` (stereo not drawn) [Compound 129, 3-[[3-(5,7-difluoro-1H-indol-3-yl)propyl](propyl)amino]-5-fluorochromane-8-carboxamide], the figures for the EC50 in experiment [1] and in experiment [3] were 9330 nM and 707 nM, respectively. Besides, the Emax in experiment [1] (setting [8]) was 100%; in experiment [3] it was 75.5%. Further, the results for the Ki in experiment [2] (setting [6]) and in experiment [4] (setting [7]) were 6.8 nM and 170 nM, respectively.

Consider `CCCN(CCCc1c[nH]c2ccc(F)cc12)[C@H]1COc2c(F)ccc(OC)c2C1` [Compound 28, (3R)-8-fluoro-N-[3-(5-fluoro-1H-indol-3-yl)propyl]-5-methoxy-N-propylchroman-3-amine], for which the results for the EC50 in experiment [1] and in experiment [3] were 166 nM and 36.5 nM, respectively. In addition, the Emax in experiment [1] (setting [8]) was determined as 88%; in experiment [3] it was 86%. Besides, the figures for the Ki in experiment [2] (setting [6]) and in experiment [4] (setting [7]) were 17.5 nM and 11 nM, respectively.

Consider `CNC(=O)c1ccc(F)c2c1CC(N(CCCc1c[nH]c3ccc(F)cc13)C1CCC1)CO2` (stereo not drawn) [Compound 59, 3-{cyclobutyl[3-(5-fluoro-1H-indol-3-yl)propyl]amino}-8-fluoro-N-methylchromane-5-carboxamide], for which the concentration for half-maximal inhibition (IC50) in experiment [1] was found to be 812 nM; in experiment [3], 166 nM. In addition, the values for the Emax in experiment [1] (setting [5]) and in experiment [3] were 100% and 0%, respectively. Also, the Ki in experiment [2] (setting [6]) was 5.05 nM; in experiment [4] (setting [7]), 5.35 nM.

For the compound `NC(=O)c1ccc(F)c2c1CC(N(CCCc1c[nH]c3cc(F)ccc13)C1CCC1)CO2` (stereo not drawn) [Compound 53, 3-{cyclobutyl[3-(6-fluoro-1H-indol-3-yl)propyl]amino}-8-fluorochromane-5-carboxamide], the IC50 in experiment [1] turned out to be 512 nM; in experiment [3] it was 486 nM. For the same compound, the Emax is 100% in experiment [1] (setting [5]) and 0% in experiment [3]. Besides, the inhibition constant Ki in experiment [2] (setting [6]) worked out at 237 nM; in experiment [4] (setting [7]), 5.02 nM.

In the case of `COc1cccc2c1CC(N(C)CCCc1c[nH]c3ccc(F)cc13)CO2` (stereo not drawn) [Compound 33, N-[3-(5-fluoro-1H-indol-3-yl)propyl]-5-methoxy-N-methylchroman-3-amine], the EC50 in experiment [1] worked out at 3.62 nM; in experiment [3] it was 95.2 nM. The Emax in experiment [1] (setting [8]) came to 69%; in experiment [3], 91%. The Ki worked out at 6.8 nM in experiment [2] (setting [6]) and 40 nM in experiment [4] (setting [7]).

Consider `COc1cccc2c1CC(N(CCCc1cn(C)c3ccc(F)cc13)CC1CC1)CO2` (stereo not drawn) [Compound 38, N-(cyclopropylmethyl)-N-[3-(5-fluoro-1-methyl-1H-indol-3-yl)propyl]-N-(5-methoxy-3,4-dihydro-2H-chromen-3-yl)amine], for which the EC50 was found to be 25.8 nM in experiment [1] and 8.84 nM in experiment [3]. For the same compound, the results for the Emax in experiment [1] (setting [8]) and in experiment [3] were 90% and 97.5%, respectively. Further, the Ki amounted to 29 nM in experiment [2] (setting [6]) and 0.15 nM in experiment [4] (setting [7]).

As to `O=C(NC1CCC1)c1cccc2c1CC(N(CCCc1c[nH]c3c(F)cc(F)cc13)C1CCC1)CO2` (stereo not drawn) [Compound 143, N-cyclobutyl-3-{cyclobutyl[3-(5,7-difluoro-1H-indol-3-yl)propyl]amino}chromane-5-carboxamide], the values for the EC50 in experiment [1] and in experiment [3] were 1390 nM and 523 nM, respectively. The Emax was found to be 100% in experiment [1] (setting [8]) and 91% in experiment [3]. In addition, the Ki in experiment [2] (setting [6]) was found to be 4.4 nM; in experiment [4] (setting [7]) it was 31.9 nM.

What is called IC50 is the point on the concentration scale where inhibition reaches its midpoint. One may read the Ki as a measure of affinity in units of concentration, obtained from inhibition or displacement. As usually defined, the EC50 is the concentration that produces a half-maximal response. A lower EC50 goes with an effect from little substance.
